Where two headings read alike, the source gives them in different places.
Legend:
[1] = test system: HCT-116, HT-29, RCC4 and SK-RC-38 human cancer cell lines; experiment: Fluorescent microscopy: binding of L2-Rhodamine to CA IX expressing cell lines; format: cell-based
Protocol: After washing, white light and fluorescent microscopy were used to visualize binding.
b. HCT-116, HT-29, RCC4 and SK-RC-38 human cancer cell lines (10^5) were seeded into chambered coverglass plates and allowed to grow to confluence over 48-72 hr. […] After incubation for 1 hour at 37° C., cells were rinsed with incubation solution (2×1.0 mL) to remove unbound conjugate then washed with PBS (1×1.0 mL). Images were acquired using confocal microscopy (FV 1000, Olympus). […] Additionally, the punctate appearance in several of the cell lines is indicative of a rapid internalization of the bound conjugate.

HT-29 cells [2] = experiment: Fluorescent microscopy: binding of rhodamine-labeled CA IX conjugates to HT-29 cells; format: cell-based, human; conditions: 1 hour at 37° C.; alone or plus 100-fold excess CA IX inhibitor; confocal microscopy
Protocol: Fluorescent conjugates were incubated with HT-29 cells in the presence or absence of 100-fold excess unlabeled ligand. After washing, white light and fluorescent microscopy were used to visualize binding.
a. HT-29 cells (10^5) were seeded into chambered coverglass plates and allowed to grow to confluence over 48-72 hr. Spent medium was replaced with 0.5 mL of fresh medium containing 0.5% bovine serum albumin and various concentrations of the dye conjugate (L1-Rhodamine, L2-Rhodamine or L3-Rhodamine) alone or the dye conjugate plus 100-fold excess CA IX inhibitor L1, L2 or L3, where appropriate. After incubation for 1 hour at 37° C., cells were rinsed twice with 1 mL of incubation solution to remove unbound fluorescence and 0.5 ml of fresh incubation medium was added to the wells. Images were acquired using a confocal microscopy (FV 1000, Olympus).

HT-29 cells [3] = experiment: 99mTc conjugates binding to HT-29 cells (apparent KD, gamma counting); parameters: species or system human; conditions: for Kd: 99mTc-bound conjugate, 1 h at 37° C., read-out: Binding Affinity (apparent KD)
Protocol: HT-29 cells (150,000 cells/well in 500 μL) were seeded into 24-well Falcon plates and allowed to form monolayers over 48 h. […] After incubating for 1 h at 37° C., cells were rinsed twice with 1 mL of medium and 1 mL of tris buffer. After dissolving in 0.5 mL of 0.25 M NaOH (aq), cells were transferred into individual γ-counter tubes and radioactivity was counted using a γ-counter (Packard, Packard Instrument Company). Apparent KD was calculated by plotting bound radioactivity versus the concentration of radiotracer using GraphPad Prism 4.

HT-29 xenograft tumors = conditions: for relative average radioactive intensity in the tumor: 10 nmol tail vein, kidneys shielded
Protocol: Whole animal images were taken 4 hours post-injection. […] The percentage of the injected dose per gram of tissue was determined and plotted. Error bars represent standard deviation. (□) Competition; (▪) L2-PEG36-EC20. […] Whole animal images were taken 9 hours post-injection. […] The percentage of the injected dose per gram of tissue was determined and plotted. Error bars represent standard deviation. (□) Competition; (▪) L2-PEG36-EC20. […] Whole animal images were taken 24 hours post-injection. […] The percentage of the injected dose per gram of tissue was determined and plotted. Error bars represent standard deviation. (□) Competition; (▪) L2-PEG36-EC20. […] At various times, animals were sacrificed by CO2 asphyxiation. […] Three mice bearing HT-29 xenografts were administered 10 nmol of conjugate via tail vein injection while an additional three mice also received 100-fold excess unconjugated inhibitor. A single mouse from each of the two groups was sacrificed for whole animal imaging and tissue/organ biodistribution analysis at 4, 9 and 24 hours post injection.

HT-29 cells [4] = format: cell-based, human; conditions: for IC50: 2 h exposure, additional 66 h in fresh medium, read-out: IC50 (3H-thymidine incorporation)
Protocol: After washing, the cells were incubated for […] and their viability was determined via ^3H-thymidine uptake.
HT-29 cells were seeded on amine-coated 24-well plates and allowed to form monolayers. The spent medium in each well was replaced with fresh medium (0.5 mL) containing various concentrations of Tubulysin B or L2-Tubulysin B in the presence or absence of 100-fold excess CA IX inhibitor L2. After incubating for 2 h at 37° C., cells were rinsed 3 times with fresh medium and then incubated an additional 66 h at 37° C. in fresh medium. Spent medium in each well was again replaced with fresh medium (0.5 mL) containing ^3H-thymidine (1 μCi/ml) and the cells were incubated for an additional 4 h. After washing the cells 3 times with medium, they were dissolved in 0.5 mL of 0.25 M NaOH. Thymidine incorporation was then determined by counting cell-associated radioactivity using a scintillation counter (Packard, Packard Instrument Company). The IC50 value was derived from a plot of the percent of ^3H-thymidine incorporation versus log concentration using Graph Pad Prism 4 and TableCurve 2D software.

Maximum tolerated dose = format: in vivo, mice; conditions: for Euthanized (mice) / Healthy (mice) / Sick (mice): thrice weekly tail vein, three mice per group
Protocol: Maximum tolerated dose. Various concentrations of L2-Tubulysin B were administered to male nu/nu mice thrice weekly via tail vein injection. Visibly sick mice were recorded and if necessary euthanized before the end of the experiment. […] Therefore, a dose of 2 μmol/kg was used for further in vivo efficacy studies.

HT29 subcutaneous tumors = experiment: In vivo xenograft tumor efficacy of L2-Tubulysin B; parameters: species or system mice; conditions: for tumor growth: thrice weekly for 3 weeks
Protocol: Once tumors reached a volume of ˜100 mm^3, mice were randomized into various treatment groups (n=3 for each IP group). L2-Tubulysin B (2 μmol/kg) was administered intraperitoneally in the presence or absence of 100-fold excess CA IX ligand L2 every other day for 9 doses. Tumor volume and weight were measured every other day. Error bars represent standard error of the mean. FIG. 10A: (●) PBS Control, (▴) L2-Tubulysin B, (□) Competition. FIG. 10B: (●) PBS Control, (▴) L2-Tubulysin B, (□) Competition.
Once tumors reached a volume of ˜100 mm^3, mice were randomized into various treatment groups (n=5 for each IV group). CA IX-Tubulysin B ([…]) was administered via tail vein injection in the presence or absence of 100-fold excess CA IX ligand every other day for 9 doses. Tumor volume and weight were measured every other day. Error bars represent standard error of the mean. FIG. 11A: (●) PBS Control, (▴) L2-Tubulysin B, (□) Competition. FIG. 11B: (●) PBS Control, (▴) L2-Tubulysin B, (□) Competition.
In vivo xenograft tumor efficacy of L2-Tubulysin B. HT29 cells (5.0×10^6) were injected into the shoulders of 5-6 week old female nu/nu mice. Tumors were measured in two perpendicular directions thrice weekly with vernier calipers and their volumes were calculated as 0.5×L×W^2, where L is the longest axis (in millimeters), and W is the axis perpendicular to L (in millimeters). Dosing of L2-Tubulysin B in the presence or absence of 100-fold excess CA IX inhibitor L2 was initiated when the subcutaneous tumors reached ˜100 mm^3 in volume. Dosing solutions were prepared in saline and filtered through a 0.22 μm filter. Solutions were administered via tail vein injection or intraperitoneally. Each mouse received 2 μmol/kg L2-Tubulysin B per injection. Injections were given thrice weekly for 3 weeks and the mice were weighed concurrently.

CN(C)c1ccc2c(-c3ccc(C(=O)NCCCCCNC(=O)CN(CCN(CC(=O)O)CC(=O)Nc4ccc(S(N)(=O)=O)cc4)CC(=O)Nc4ccc(S(N)(=O)=O)cc4)cc3C(=O)O)c3ccc(=[N+](C)C)cc-3oc2c1 [Conjugate L2-Rhodamine]
binding in the presence of competing unconjugated CA IX inhibitor ([1]; competing unconjugated CA IX inhibitor as printed (method: 100-fold excess L2)): essentially no binding was observed | binding to cell lines ([1]; dye conjugate alone, 1 hour at 37° C., confocal microscopy): binding is observed in every cell line tested | binding to HT-29 cells and competition by excess unconjugated inhibitor (HT-29 cells [2]): bound the cells and were competed in the presence of excess unconjugated inhibitor

CN(C)c1ccc2c(-c3ccc(C(=O)NCCOCCOCCOCCOCCC(=O)Nc4cccc(NC(=O)Nc5ccc(S(N)(=O)=O)cc5)c4)cc3C(=O)O)c3ccc(=[N+](C)C)cc-3oc2c1 [Conjugate L3-Rhodamine]
binding to HT-29 cells and competition by excess unconjugated inhibitor (HT-29 cells [2]): bound the cells and were competed in the presence of excess unconjugated inhibitor

N[C@H](CNC(=O)CCOCCOCCOCCOCCOCCOCCOCCOCCOCCOCCOCCOCCNC(=O)CCC(=O)Nc1cccc(NC(=O)Nc2ccc(S(N)(=O)=O)cc2)c1)C(=O)N[C@@H](CC(=O)O)C(=O)NC[C@H](CS)C(=O)O [L3-PEG12-EC20]
Kd (HT-29 cells [3]): 146 nM | decrease of binding by addition of the PEG12-EC20 (HT-29 cells [3]; binding affinity of conjugate versus reported Ki of original ligand): 162 fold

N[C@H](CNC(=O)CCOCCOCCOCCOCCOCCOCCOCCOCCOCCOCCOCCOCCOCCOCCOCCOCCOCCOCCOCCOCCOCCOCCOCCOCCOCCOCCOCCOCCOCCOCCOCCOCCOCCOCCOCCOCCNC(=O)CN(CCN(CC(=O)O)CC(=O)Nc1ccc(S(N)(=O)=O)cc1)CC(=O)Nc1ccc(S(N)(=O)=O)cc1)C(=O)N[C@@H](CC(=O)O)C(=O)NC[C@H](CS)C(=O)O [L2-PEG36-EC20]
Kd (HT-29 cells [3]): 57 nM | tumor intensity with concurrent 100-fold excess unconjugated inhibitor (HT-29 xenograft tumors; 4, 9 and 24 hours post injection): did not exhibit any intensity in the tumor | relative average radioactive intensity in the tumor (HT-29 xenograft tumors; 4 hours post injection): ~1300 | relative average radioactive intensity in the tumor (HT-29 xenograft tumors; 9 hours post injection): 750 | relative average radioactive intensity in the tumor (HT-29 xenograft tumors; 24 hours post injection): 350

CCCC(=O)OCN(C(=O)[C@@H](NC(=O)[C@H]1CCCCN1C)[C@@H](C)CC)[C@H](C[C@@H](OC(C)=O)c1nc(C(=O)N[C@@H](Cc2ccc(O)cc2)C[C@H](C)C(=O)O)cs1)C(C)C [Tubulysin B, reference compound]
IC50 (HT-29 cells [4]): 0.08 nM

CCCC(=O)OCN(C(=O)[C@@H](NC(=O)[C@H]1CCCCN1C)[C@@H](C)CC)[C@H](C[C@@H](OC(C)=O)c1nc(C(=O)N[C@@H](Cc2ccc(O)cc2)C[C@H](C)C(=O)NNC(=O)OCCSSC[C@H](NC(=O)[C@H](CC(=O)O)NC(=O)[C@@H](N)CNC(=O)CCOCCOCCOCCOCCOCCOCCOCCOCCOCCOCCOCCOCCNC(=O)CN(CCN(CC(=O)O)CC(=O)Nc2ccc(S(N)(=O)=O)cc2)CC(=O)Nc2ccc(S(N)(=O)=O)cc2)C(=O)O)cs1)C(C)C [L2-Tubulysin B]
adverse events (Maximum tolerated dose; 1 μmol/kg): no adverse events were identified | Euthanized (mice) (Maximum tolerated dose; 1 μmol/kg): 0 | Healthy (mice) (Maximum tolerated dose; 1 μmol/kg): 3 | Sick (mice) (Maximum tolerated dose; 1 μmol/kg): 0 | Euthanized (mice) (Maximum tolerated dose; 3 μmol/kg): 0 | Healthy (mice) (Maximum tolerated dose; 3 μmol/kg): 2 | Sick (mice) (Maximum tolerated dose; 3 μmol/kg): 1 | Euthanized (mice) (Maximum tolerated dose; 5 μmol/kg): 2 | Healthy (mice) (Maximum tolerated dose; 5 μmol/kg): 0 | Sick (mice) (Maximum tolerated dose; 5 μmol/kg): 1 | signs of toxicity (Maximum tolerated dose; highest dose): all mice showed signs of toxicity | IC50 (HT-29 cells [4]): 4.4 nM | cytotoxic effect with 100-fold excess of the unconjugated inhibitor (HT-29 cells [4]; HT-29 cells): completely abrogated | tumor growth with 100-fold excess CA IX inhibitor L2 (HT29 subcutaneous tumors; 2 μmol/kg): growth of the tumors was similar to the control group | tumor growth (HT29 subcutaneous tumors; 2 μmol/kg intraperitoneally): essentially halted tumor growth | tumor growth (HT29 subcutaneous tumors; 2 μmol/kg via tail vein injection): essentially halted tumor growth | gross toxicity (HT29 subcutaneous tumors; 2 μmol/kg, both routes): no gross toxicity was observed | loss of weight (HT29 subcutaneous tumors; 2 μmol/kg, both routes): no loss of weight was observed

From patent publication US11925696B2, “Carbonic anhydrase IX targeting agents and methods” (priority 2016, dated 2024)
